In PubChem BioAssay (NCI):
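1) Cells in 96-well plates. 2) Compound, 48 h, 5 concentrations. 3) Linear interpolation between surrounding doses. 4) Unreached endpoint = highest concentration. GI50 = concentration required for 50% inhibition of growth. TGI: concentration producing complete growth inhibition.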

How the values were obtained:
Assay in all cases: growth of human tumour cells (NCI), 48 h
RPMI-8226 leukemia = tested on: RPMI-8226 leukemia
COLO 205 colon = tested on: COLO 205 colon
SF-295 CNS = tested on: SF-295 CNS
M14 melanoma = tested on: M14 melanoma
HS 578T breast = tested on: HS 578T breast
TK-10 renal = tested on: TK-10 renal
SNB-75 CNS = tested on: SNB-75 CNS
NCI-H522 lung = tested on: NCI-H522 lung
EKVX NSCLC = tested on: EKVX NSCLC
HCT-15 colon = tested on: HCT-15 colon
CCRF-CEM leukemia = tested on: CCRF-CEM leukemia
SK-OV-3 ovarian = tested on: SK-OV-3 ovarian
A498 renal = tested on: A498 renal
CAKI-1 renal = tested on: CAKI-1 renal
OVCAR-8 ovarian = tested on: OVCAR-8 ovarian
NCI/ADR-RES ovarian = tested on: NCI/ADR-RES ovarian
BT-549 breast = tested on: BT-549 breast
RXF 393 renal = tested on: RXF 393 renal
ACHN renal = tested on: ACHN renal
SW-620 colon = tested on: SW-620 colon
SN12C renal = tested on: SN12C renal
SK-MEL-5 melanoma = tested on: SK-MEL-5 melanoma
MOLT-4 leukemia = tested on: MOLT-4 leukemia
NCI-H460 lung = tested on: NCI-H460 lung
NCI-H23 lung = tested on: NCI-H23 lung
LOX IMVI melanoma = tested on: LOX IMVI melanoma
U251 CNS = tested on: U251 CNS
HT29 colon = tested on: HT29 colon
UO-31 renal = tested on: UO-31 renal
HOP-62 NSCLC = tested on: HOP-62 NSCLC
PC-3 prostate = tested on: PC-3 prostate
SR leukemia = tested on: SR leukemia
KM12 colon = tested on: KM12 colon
HOP-92 NSCLC = tested on: HOP-92 NSCLC
OVCAR-5 ovarian = tested on: OVCAR-5 ovarian
MALME-3M melanoma = tested on: MALME-3M melanoma
MCF7 breast = tested on: MCF7 breast
OVCAR-4 ovarian = tested on: OVCAR-4 ovarian
UACC-62 melanoma = tested on: UACC-62 melanoma
HCT-116 colon = tested on: HCT-116 colon
UACC-257 melanoma = tested on: UACC-257 melanoma
HCC-2998 colon = tested on: HCC-2998 colon
SK-MEL-28 melanoma = tested on: SK-MEL-28 melanoma
NCI-H226 lung = tested on: NCI-H226 lung
SF-268 CNS = tested on: SF-268 CNS
MDA-MB-435 = tested on: MDA-MB-435
HL-60(TB) leukemia = tested on: HL-60(TB) leukemia
DU-145 prostate = tested on: DU-145 prostate
IGROV1 ovarian = tested on: IGROV1 ovarian
MDA-MB-231 breast = tested on: MDA-MB-231 breast
T-47D breast = tested on: T-47D breast
SF-539 CNS = tested on: SF-539 CNS
OVCAR-3 ovarian = tested on: OVCAR-3 ovarian
SNB-19 CNS = tested on: SNB-19 CNS
A549 NSCLC = tested on: A549 NSCLC
786-0 renal = tested on: 786-0 renal

COC(CCP(=O)(c1ccccc1)c1ccccc1)(C(=O)c1ccccc1)c1ccccc1 (configuration not stated)
GI50 (RPMI-8226 leukemia): 0.433 µM | TGI (RPMI-8226 leukemia): 2.6 µM | GI50 (COLO 205 colon): 1.64 µM | TGI (COLO 205 colon): 3.82 µM | GI50 (SF-295 CNS): 0.135 µM | TGI (SF-295 CNS): 1.49 µM | GI50 (M14 melanoma): 3.5 µM | TGI (M14 melanoma): 15.3 µM | GI50 (HS 578T breast): 4.81 µM | TGI (HS 578T breast): 23.1 µM | GI50 (TK-10 renal): 2.94 µM | TGI (TK-10 renal): 14.1 µM | GI50 (SNB-75 CNS): 5.76 µM | TGI (SNB-75 CNS): 22 µM | GI50 (NCI-H522 lung): 4.71 µM | TGI (NCI-H522 lung): 26 µM | GI50 (EKVX NSCLC): 4.37 µM | TGI (EKVX NSCLC): 16.9 µM | GI50 (HCT-15 colon): 3.19 µM | TGI (HCT-15 colon): 13.6 µM | GI50 (CCRF-CEM leukemia): 2.27 µM | TGI (CCRF-CEM leukemia): 42 µM | GI50 (SK-OV-3 ovarian): 8.05 µM | TGI (SK-OV-3 ovarian): 21.8 µM | GI50 (A498 renal): 3.4 µM | TGI (A498 renal): 16.8 µM | GI50 (CAKI-1 renal): 2.95 µM | TGI (CAKI-1 renal): 12.2 µM | GI50 (OVCAR-8 ovarian): 7.95 µM | TGI (OVCAR-8 ovarian): 27.8 µM | GI50 (NCI/ADR-RES ovarian): 4.93 µM | TGI (NCI/ADR-RES ovarian): 20.9 µM | GI50 (BT-549 breast): 4.55 µM | TGI (BT-549 breast): 15.6 µM | GI50 (RXF 393 renal): 0.213 µM | TGI (RXF 393 renal): 0.917 µM | GI50 (ACHN renal): 4.98 µM | TGI (ACHN renal): 17 µM | GI50 (SW-620 colon): 3.86 µM | TGI (SW-620 colon): 15.7 µM | GI50 (SN12C renal): 5.23 µM | TGI (SN12C renal): 20 µM | GI50 (SK-MEL-5 melanoma): 2.39 µM | TGI (SK-MEL-5 melanoma): 10.9 µM | GI50 (MOLT-4 leukemia): 2.06 µM | TGI (MOLT-4 leukemia): > 100 µM | GI50 (NCI-H460 lung): 3.43 µM | TGI (NCI-H460 lung): 14 µM | GI50 (NCI-H23 lung): 4.5 µM | TGI (NCI-H23 lung): 17.8 µM | GI50 (LOX IMVI melanoma): 5.12 µM | TGI (LOX IMVI melanoma): 19.6 µM | GI50 (U251 CNS): 5.5 µM | TGI (U251 CNS): 18.4 µM | GI50 (HT29 colon): 4.65 µM | TGI (HT29 colon): 19.1 µM | GI50 (UO-31 renal): 2.46 µM | TGI (UO-31 renal): 16.9 µM | GI50 (HOP-62 NSCLC): 11 µM | TGI (HOP-62 NSCLC): 24.8 µM | GI50 (PC-3 prostate): 2.15 µM | TGI (PC-3 prostate): 12.3 µM | GI50 (SR leukemia): 0.967 µM | TGI (SR leukemia): > 100 µM | GI50 (KM12 colon): 3.06 µM | TGI (KM12 colon): 13.4 µM | GI50 (HOP-92 NSCLC): 1.42 µM | TGI (HOP-92 NSCLC): 16.6 µM | GI50 (OVCAR-5 ovarian): 10.1 µM | TGI (OVCAR-5 ovarian): 23.7 µM | GI50 (MALME-3M melanoma): 2.78 µM | TGI (MALME-3M melanoma): 15.4 µM | GI50 (MCF7 breast): 2.39 µM | TGI (MCF7 breast): 11.3 µM | GI50 (OVCAR-4 ovarian): 5.57 µM | TGI (OVCAR-4 ovarian): 21.4 µM | GI50 (UACC-62 melanoma): 2.39 µM | TGI (UACC-62 melanoma): 15.1 µM | GI50 (HCT-116 colon): 4.48 µM | TGI (HCT-116 colon): 16.5 µM | GI50 (UACC-257 melanoma): 3.11 µM | TGI (UACC-257 melanoma): 11.8 µM | GI50 (HCC-2998 colon): 4.11 µM | TGI (HCC-2998 colon): 17.9 µM | GI50 (SK-MEL-28 melanoma): 6.95 µM | TGI (SK-MEL-28 melanoma): 19.9 µM | GI50 (NCI-H226 lung): 2.19 µM | TGI (NCI-H226 lung): 15.7 µM | GI50 (SF-268 CNS): 10.2 µM | TGI (SF-268 CNS): 21.9 µM | GI50 (MDA-MB-435): 3.64 µM | TGI (MDA-MB-435): 15 µM | GI50 (HL-60(TB) leukemia): 2.29 µM | TGI (HL-60(TB) leukemia): > 100 µM | GI50 (DU-145 prostate): 12 µM | TGI (DU-145 prostate): 24.3 µM | GI50 (IGROV1 ovarian): 8.06 µM | TGI (IGROV1 ovarian): 25.4 µM | GI50 (MDA-MB-231 breast): 2.69 µM | TGI (MDA-MB-231 breast): 17 µM | GI50 (T-47D breast): 2.06 µM | TGI (T-47D breast): 12.3 µM | GI50 (SF-539 CNS): 10.2 µM | TGI (SF-539 CNS): 21.9 µM | GI50 (OVCAR-3 ovarian): 5.26 µM | TGI (OVCAR-3 ovarian): 18.2 µM | GI50 (SNB-19 CNS): 5.75 µM | TGI (SNB-19 CNS): 19.1 µM | GI50 (A549 NSCLC): 3.77 µM | TGI (A549 NSCLC): 16.5 µM | GI50 (786-0 renal): 10.3 µM | TGI (786-0 renal): 28 µM
